According to publication PMC2361651 (British Journal of Cancer, 2005):

Experiments:
[1] = tested on: tumour vascular permeability; test: DCE-MRI of tumour vascular permeability; type: in vivo, human; conditions: for increase in leakage space (Ve): final scan (median 35 days), soft-tissue sarcoma patient
Protocol: All patients were asked to have a baseline DCE-MRI examination within the 7 days prior to receiving the study compound under study conditions as described above. Follow-up scans were performed on day 1 and then after 4 weeks of therapy. After the first three patients' examination, the protocol was amended to day 1, 2 weeks, 6 weeks and 6 weekly thereafter if the patient remained on study. All examinations were performed on a 1.5 T MRI system (Vision, Siemens Medical Systems, Erlangen, Germany) approximately 4 h after the commencement of the treatment infusion.
The image collection protocol comprised routine orthogonal T1- and T2-weighted images taken through the previously identified target lesion, to allow localisation and bi-dimensional tumour measurement. The dynamic imaging used a five-slice saturation recovery turbo fast low-angle shot sequence (SRTF) taken through the centre of the target lesion. Proton density-weighted images were acquired, followed by a series of T1-weighted images employing the same gain and image scaling factors. The sequential T1-weighted images were acquired every 9 s for 6.3 min (42 time points).
Gadopentetate dimeglumine (Magnevist Schering Health Care Limited, Burgess Hill, Sussex, UK) was injected intravenously using a mechanical power injector, through a peripherally placed cannula. This contrast was administered as a bolus after the third baseline data point was acquired at a dose of 0.1 mmol kg^−1 body weight. The use of the mechanical power injector allowed the contrast to be delivered within 10 s. The contrast injection was followed by a 20 ml flush of normal saline.
Using the resultant scanned images, two trained observers (AP, CH) blinded to the clinical outcome of the patients evaluated the patterns of enhancement within a designated region of interest. Contrast medium kinetic parameters were then derived for each pixel using MR Imaging Workbench software®. Quantitative and semiquantitative statistical analysis was then performed on these parameters using StatsDirect software (Research Solutions, Cambridge, UK).

[2] = human, in vivo
[3] = tested on: coagulation / fibrinolytic pathway; test: Coagulation parameters and expanded coagulation series in patients; type: in vivo, human
Protocol: During the dose escalation stage of the protocol, a standard series of coagulation parameters (APPT, INR and fibrinogen) was explored at baseline prior to therapy and every 2 weeks thereafter. In the dose expansion phase of the protocol, in response to the clinical occurrence of two separate venous thrombotic episodes in study patients, an expanded coagulation series was performed.
At each time point, blood was collected in citrated and EDTA tubes (Becton-Dickinson Vacutainer Systems, Europe). The samples from the citrated tubes were immediately centrifuged (at 4°C for 10 min at 3000 r.p.m.) supernatants pooled into inert plastic, centrifuged again (at 4°C, 10 min at 3000 r.p.m.) and the resultant sample stored in inert plastic tubes at −70°C until analysis. The sample taken into EDTA was centrifuged (at 4°C, for 10 min at 3000 r.p.m.), the supernatant decanted into inert plastic tubes and again stored at −70°C until analysis.

[4] = tested on: treatment refractory solid tumours; test: Tumour response (WHO response criteria); type: in vivo, human
Description: The study protocol was approved by the Research Ethics Committee of the Royal […] Trust. Written informed consent was obtained from all participants. All patients had treatment refractory solid tumours and were required to have at least one tumour deposit suitable for DCE-MRI evaluation. A suitable lesion had to be ⩾2 cm in size and in an anatomical position not subject to significant respiratory excursion. […] Exclusion criteria included patients with a known history of allergy to radiologic contrast agents or to Cremophor®; a Karnovsky performance status of <60%; a history of myocardial infarction, severe or unstable angina within 6 months of the study; diabetes mellitus with clinical evidence of severe peripheral vascular disease or ulceration; a medical condition or device implant that would interfere with or prevent MRI scans; or a serious concomitant medical condition that could interfere with the participation in the study or interpretation of study results.

[5] = cited from earlier work
[6] = tested on: KIT (the receptor for stem cell factor); design: method as in Antonian et al, 2000; Smolich et al, 2001; Yee et al, 2002; conditions: ref Antonian et al, 2000; Smolich et al, 2001; Yee et al, 2002; cited from earlier work
[7] = mid-treatment (2 weeks), one patient, squamous cell carcinoma nasopharynx, 110 mg m^−2
[8] = 27 patients treated, two not evaluable

SMILES: Cc1cc(C)c(/C=C2\C(=O)Nc3ccccc32)[nH]1 [SU5416, Z-3-[(2,4-dimethylpyrrol-5-yl)methylidenyl]-2-indolinone]
- increase in leakage space (Ve) ([1]; 48 mg m^−2): 36.5%
- increase in leakage space (Ve) ([1]; final expansion cohort): 34.5%
- change in Ktrans ([1]; increase, day 1, one patient with metastatic melanoma (target lesion brain)): 91%
- change in Ktrans [1, 7]: −51.9%
- change in Ve [1, 7]: −48.6%
- Grade II hypersensitivity reactions, patients affected [2]: 11 patients
- change in INR, APTT or fibrinogen ([3]; baseline and every 2 weeks): No change
- reduction in plasmin–anti-plasmin complexes, median change ([3]; six patients, expanded panel): 12.7 µg/L
- reduction in plasmin–anti-plasmin complexes, range of change ([3]; six patients, expanded panel): 0 to 36 µg/L
- acute increase in plasminogen activator inhibitor (PAI-1) levels, median change ([3]; six patients, expanded panel, recovery at 24 h): 37.3 IU
- patients with progressive disease as best response [4, 8]: 14 patients
- patients with stable disease at 6 weeks [4, 8]: 12 patients
- patients remaining on therapy for more than 12 weeks ([4]; haemangioendothelioma, ovarian and adrenocortical carcinoma): three
- degree of induction of SU5416 metabolism ([5]; same schedule, sampling from day 1, ref Cropp et al, 1999, Rosen et al): 69%
- dose at which DLT (projectile vomiting and severe headache) was reported ([5]; same twice weekly schedule, ref Rosen et al, 1999): 190 mg m^−2
- inhibition of KIT [6]: potent competitive inhibitor
